Assay results: patent US20170152263A1, “Substituted Indazole Compounds as IRAK4 Inhibitors” (AURIGENE DISCOVERY TECHNOLOGIES LIMITED, priority 2014, published 2017)
Structures can show the parent of a compound that is named as a salt.

Target: T1, recombinant IRAK-4 kinase (Homo sapiens, UniProt Q9NWZ3)
T1 construct: purchased Millipore, USA
T1 sequence (Q9NWZ3 1-460): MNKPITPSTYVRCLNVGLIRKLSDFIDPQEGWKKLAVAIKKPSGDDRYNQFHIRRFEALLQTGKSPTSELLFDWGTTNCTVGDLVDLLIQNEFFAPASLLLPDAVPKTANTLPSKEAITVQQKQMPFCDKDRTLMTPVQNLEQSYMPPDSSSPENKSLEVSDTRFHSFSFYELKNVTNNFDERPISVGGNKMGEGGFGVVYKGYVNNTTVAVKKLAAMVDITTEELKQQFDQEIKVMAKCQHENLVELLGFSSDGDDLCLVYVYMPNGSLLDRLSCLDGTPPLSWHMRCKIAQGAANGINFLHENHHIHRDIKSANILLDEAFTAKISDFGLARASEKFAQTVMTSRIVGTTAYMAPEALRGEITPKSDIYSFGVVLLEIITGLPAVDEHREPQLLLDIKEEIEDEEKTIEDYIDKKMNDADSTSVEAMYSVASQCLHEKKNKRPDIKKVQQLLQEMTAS
Assay: IRAK-4 biochemical assay (TR-FRET)
Conditions: IRAK-4 enzyme, 20 μM ATP; for inhibition at 0.1 µM: compound at 0.1 μM; for inhibition at 1 µM: compound at 1 μM; for IC50: dose response
Experimental: Compounds were tested for their potential to inhibit IRAK-4 enzyme in a TR-FRET assay using recombinant IRAK-4 kinase from Millipore, USA. The assay buffer was 50 mM Tris-HCl pH 7.5, 20 mM MgCl2, 1 mM EGTA, 2 mM DTT, 3 mM MnCl2 and 0.01% Tween 20.5 ng of IRAK-4 kinase was used for the assay. After pre-incubation of enzyme with test compound for 30 minutes at room temperature, a substrate mixture containing 100 nM Biotin Histone H3 (Millipore, USA) and 20 μM ATP (Sigma, USA) was added and the reaction was incubated for 30 min. Post incubation, the reaction was stopped by the addition of stop mix containing 40 mM EDTA, 1 nM of Europium-Anti-Phospho-Histone H3 (Ser10) antibody (Perkin Elmer, USA) and 20 nM SureLight Allophycocyanin-Streptavidin (Perkin Elmer, USA). The fluorescence emission at 615 nm and 665 nm were measured at an excitation of 340 nm and the percent inhibition was estimated from the ratio of the fluorescence intensities [(F665/F615)×10000]. […] The IC50 values were estimated by fitting the dose-response data to sigmoidal dose response (variable slope), curve fitting program using Graphpad Prism software Version 6.01.

Row | inhibition at 0.1 µM [%] | inhibition at 1 µM [%] | IC50 [nM] | Compound
1 | 24 | 71 | > 250 | Cn1ncc2cc(N3CC[C@H](O)C3)c(NC(=O)c3cccc(N4CC[C@H](O)C4)n3)cc21 [Example 25, 6-((S)-3-hydroxypyrrolidin-1-yl)—N—(5-((S)-3-hydroxypyrrolidin-1-yl)-1-methyl-1H-indazol-6-yl)picolinamide]
2 | 96 | 98 | < 100 | Cn1ncc2cc(N3CC[C@H](O)C3)c(NC(=O)c3coc(-c4ccnc(N)c4F)n3)cc21 [Example 28, (S)-2-(2-amino-3-fluoropyridin-4-yl)—N—(5-(3-hydroxypyrrolidin-1-yl)-1-methyl-1H-indazol-6-yl)oxazole-4-carboxamide]
3 | 0 | 54 | – | Cc1cc(-c2nc(C(=O)Nc3cc4c(cnn4CC4CCNCC4)cc3N3CC[C@H](O)C3)co2)ccn1 [Example 44, (S)—N—(5-(3-hydroxypyrrolidin-1-yl)-1-(piperidin-4-ylmethyl)-1H-indazol-6-yl)-2-(2-methylpyridin-4-yl)oxazole-4-carboxamide hydrochloride]
4 | 2 | 12 | – | Cc1cc(-c2nc(C(=O)Nc3cc4c(cc3N3CCC(CO)CC3)c(C)nn4C)co2)ccn1 [Example 45, N—(5-(4-(hydroxymethyl)piperidin-1-yl)-1,3-dimethyl-1H-indazol-6-yl)-2-(2-methylpyridin-4-yl)oxazole-4-carboxamide hydrochloride]
5 | 33 | 80 | 100 to 250 | Cn1ncc2cc(N3CC[C@@H](O)C3)c(NC(=O)c3cccc(N4CC[C@H](O)C4)n3)cc21 [Example 24, 6-((S)-3-hydroxypyrrolidin-1-yl)—N—(5-((R)-3-hydroxypyrrolidin-1-yl)-1-methyl-1H-indazol-6-yl)picolinamide]
6 | 0 | 15 | – | Cc1nn(C)c2cc(NC(=O)c3coc(-c4ccnc(N)c4)n3)c(N3CCC(CO)CC3)cc12 [Example 43, 2-(2-aminopyridin-4-yl)—N—(5-(4-(hydroxymethyl)piperidin-1-yl)-1,3-dimethyl-1H-indazol-6-yl)oxazole-4-carboxamide hydrochloride]
7 | 14 | 95 | < 100 | Cn1ncc2cc(N3CC[C@@H](O)C3)c(NC(=O)c3coc(-c4cccnc4N)n3)cc21 [Example 29, (R)-2-(2-aminopyridin-3-yl)—N—(5-(3-hydroxypyrrolidin-1-yl)-1-methyl-1H-indazol-6-yl)oxazole-4-carboxamide hydrochloride]
8 | 25 | 87 | 100 to 250 | Cc1cc(-c2nc(C(=O)Nc3cc4c(cnn4C4CC4)cc3N3CC[C@H](O)C3)co2)ccn1 [Example 33, (S)—N—(1-cyclopropyl-5-(3-hydroxypyrrolidin-1-yl)-1H-indazol-6-yl)-2-(2-methylpyridin-4-yl)oxazole-4-carboxamide hydrochloride]
9 | 0 | 20 | – | CN1CCN(c2nc(C(=O)Nc3cc4c(cnn4C)cc3N3CC[C@H](O)C3)co2)CC1 [Example 30, (S)—N—(5-(3-hydroxypyrrolidin-1-yl)-1-methyl-1H-indazol-6-yl)-2-(4-methylpiperazin-1-yl)oxazole-4-carboxamide hydrochloride]
10 | 96 | 92 | < 100 | Cn1ncc2cc(N3CC[C@H](O)C3)c(NC(=O)c3coc(-c4ccnc5[nH]ccc45)n3)cc21 [Example 26, (S)—N—(5-(3-hydroxypyrrolidin-1-yl)-1-methyl-1H-indazol-6-yl)-2-(1H-pyrrolo[2,3-b]pyridin-4-yl)oxazole-4-carboxamide]

Continued, compound first:

Row | Compound | inhibition at 0.1 µM [%] | inhibition at 1 µM [%] | IC50 [nM]
11 | Cn1cc2cc(N3CCCCC3)c(NC(=O)c3cccc(N4CC[C@H](N)C4)n3)cc2n1 [Example 7, (S)-6-(3-aminopyrrolidin-1-yl)—N—(2-methyl-5-(piperidin-1-yl)-2H-indazol-6-yl)picolinamide] | 93 | 83 | > 250
12 | Cc1cc(-c2nc(C(=O)Nc3cc4c(cnn4C)cc3N3CCCC(F)C3)co2)ccn1 (centres unmarked) [Example 16, N—(5-(3-fluoropiperidin-1-yl)-1-methyl-1H-indazol-6-yl)-2-(2-methylpyridin-4-yl)oxazole-4-carboxamide] | 94 | 99 | < 100
13 | Cc1cc(-c2nc(C(=O)Nc3cc4c(cnn4C)cc3N3CC[C@H](O)C3)co2)cc(C)n1 [Example 21, (S)-2-(2,6-dimethylpyridin-4-yl)—N—(5-(3-hydroxypyrrolidin-1-yl)-1-methyl-1H-indazol-6-yl)oxazole-4-carboxamide] | 41 | 84 | 100 to 250
14 | Cc1cc(-c2nc(C(=O)Nc3cc4c(cnn4C)cc3N3CCCCC3)co2)ccn1 [Example 1, N-(1-methyl-5-(piperidin-1-yl)-1H-indazol-6-yl)-2-(2-methylpyridin-4-yl)oxazole-4-carboxamide hydrochloride] | – | 96 | < 100
15 | Cn1ncc2cc(N3CCCCC3)c(NC(=O)c3coc(N4CC[C@H](O)C4)n3)cc21 [Example 10, (S)-2-(3-hydroxypyrrolidin-1-yl)—N—(1-methyl-5-(piperidin-1-yl)-1H-indazol-6-yl)oxazole-4-carboxamide] | 95 | 91 | < 100
16 | Cn1cc2cc(N3CCCCC3)c(NC(=O)c3cccc(N4CC[C@H](O)C4)n3)cc2n1 [Example 3, (S)-6-(3-hydroxypyrrolidin-1-yl)—N—(2-methyl-5-(piperidin-1-yl)-2H-indazol-6-yl)picolinamide] | 90 | 73 | > 250
17 | Cc1cc(-c2nc(C(=O)Nc3cc4nn(C)cc4cc3N3CCCC(O)C3)co2)ccn1 (centres unmarked) [Example 13, N—(5-(3-hydroxypiperidin-1-yl)-2-methyl-2H-indazol-6-yl)-2-(2-methylpyridin-4-yl)oxazole-4-carboxamide hydrochloride] | 79 | – | < 100
18 | Cn1ncc2cc(N3CC[C@H](O)C3)c(NC(=O)c3coc(-c4ccnc(N)c4)n3)cc21 [Example 18, (S)-2-(2-aminopyridin-4-yl)—N—(5-(3-hydroxypyrrolidin-1-yl)-1-methyl-1H-indazol-6-yl)oxazole-4-carboxamide] | 94 | 96 | < 100
19 | Cc1cc(-c2nc(C(=O)Nc3cc4c(cnn4C)cc3N3CCC(CO)CC3)co2)ccn1 [Example 20, N-(5-(4-(hydroxymethyl)piperidin-1-yl)-1-methyl-1H-indazol-6-yl)-2-(2-methylpyridin-4-yl)oxazole-4-carboxamide] | 96 | 97 | < 100
20 | Cc1cc(-c2nc(C(=O)Nc3cc4nn(C)cc4cc3N3CCCCC3)co2)ccn1 [Example 2, N—(2-methyl-5-(piperidin-1-yl)-2H-indazol-6-yl)-2-(2-methylpyridin-4-yl)oxazole-4-carboxamide hydrochloride] | – | 98 | < 100
21 | Cc1cc(-c2nc(C(=O)Nc3cc4c(cnn4C)cc3N3CC[C@@H](O)C3)co2)ccn1 [Example 22, (R)—N—(5-(3-hydroxypyrrolidin-1-yl)-1-methyl-1H-indazol-6-yl)-2-(2-methylpyridin-4-yl)oxazole-4-carboxamide] | 89 | 96 | < 100
22 | Cn1ncc2cc(N3CCCCC3)c(NC(=O)c3cccc(N4CC[C@H](O)C4)n3)cc21 [Example 9, (S)-6-(3-hydroxypyrrolidin-1-yl)—N—(1-methyl-5-(piperidin-1-yl)-1H-indazol-6-yl)picolinamide] | 83 | 78 | > 250
23 | Cc1cc(-c2nc(C(=O)Nc3cc4c(cnn4C)cc3N3CCC(O)CC3)co2)ccn1 [Example 17, N—(5-(4-hydroxypiperidin-1-yl)-1-methyl-1H-indazol-6-yl)-2-(2-methylpyridin-4-yl)oxazole-4-carboxamide] | 93 | 95 | < 100
24 | Cc1cc(-c2nc(C(=O)Nc3cc4c(cnn4C)cc3N3CCC(F)CC3)co2)ccn1 [Example 19, N—(5-(4-fluoropiperidin-1-yl)-1-methyl-1H-indazol-6-yl)-2-(2-methylpyridin-4-yl)oxazole-4-carboxamide] | 94 | 97 | < 100
